PMC11513854, “De novo GTP synthesis is a metabolic vulnerability for the interception of brain metastases” (Cell Reports Medicine, 2024)

Assays:
[1] = test system: patient-derived BMICs; assay: Cell proliferation assay over time, PrestoBlue; assay type: cell-based, human; conditions: IC80, PrestoBlue normalized to vehicle
Experimental: Cell proliferation assays were conducted using the same protocol, except for drugs being plated at their IC80 for a four-day incubation period. All results were illustrated and analyzed for significance using GraphPad Prism 8 software.

[2] = test system: patient-derived BMICs; assay: Clonogenic secondary sphere formation assay after drug removal; assay type: cell-based, human; conditions: IC80 treatment for 72 h, then removal from culture media
[3] = test system: patient-derived BMICs; assay: Pre-treatment PDX model, intracranial engraftment of lung-BMICs; assay type: in vivo, mice; conditions: vs placebo
Excerpt: (§1) We decided to focus primarily on lung-BM for our in vivo experiments because they account for over 50% of all BM cases. […] This phenotype was also recapitulated in a melanoma-BM PDX model (Figures S2A and S2B).
Comparisons were made via a two-tailed unpaired t test and data are presented as mean ± SD from 4 to 5 technical replicates. p value is indicated. (C) Schematic of experimental timeline. […] IVIS, in vivo imaging system. Comparisons were made via a two-tailed unpaired t test and data are presented as mean ± SD from 4 to 5 technical replicates. p value is indicated. […] Comparisons were made via a log rank (Mantel-Cox) test, p value is indicated. (G) Quantification of human cells in mouse brains by flow cytometry at the humane endpoint. […]
All experimental procedures involving animal work has been reviewed and approved by McMaster University Animal Research Ethics Board. […] Mice are monitored weekly for signs of illness until endpoint.
Bioluminescent imaging was performed using an IVIS Spectrum In Vivo Imaging System (PerkinElmer) as per the manufacturer’s instructions. Imaging and quantification of signals is controlled by the analysis software Living Image (Xenogen). […] Regions of interest were quantified by bioluminescent signal (photons per second) using Living Image software for a standardized comparison between images.

[4] = test system: melanoma-BM; assay: Pre-treatment melanoma-BM PDX model; assay type: in vivo, mice; conditions: pre-treated BMICs
Excerpt: as §1
Fig S2. PDX m odels m im ic patient data, related to Figure 3. a, Representative IVIS bioluminescence images of […]
imaging system. Comparisons were made via a two-tailed unpaired t-test and data are presented as mean ± SED from 4-5 technical replicates. […]
following intracranial engraftment of patient-der ived BMICs. Comparisons were made via a Log-rank (Mantel-Cox) test, P value is indicated. c, CRUK0748, a patient- derived lung tumor cell line that metastasized to the brain of the patient it was retrieved from, was confirmed to metastasize to the brains of mice in our animal models following intrathoracic injection. CRUK0733, a patient-derived lung tumor cell line that has not metastasized to the brain of […]
anti-proliferative effect on BMICs isolated from the brains of mice following CRUK0748 metastasis to the brain.
(1 picture or pasted object on this page, not shown here)

[5] = test system: primary CRUK0748 lung tumor cells; assay: Pre-treatment model, intrathoracic engraftment of primary lung tumor cells; assay type: in vivo, mice; conditions: cells pre-treated in vitro
Experimental: Mice injected with MPA-treated cells also experienced a significant increase in median survival time of 6 days compared to the mice injected with vehicle-treated cells (Figure 3H).
BMICs were dissociated into single cell suspensions and resuspended in phosphate buffered saline (PBS, Wisent Bio) with 2 mM EDTA. Cells were stained with APC-conjugated anti-human TRA-1-85 (CD147; Cat # 130-128-900, Miltenyi Biotec) and incubated for 15 min at room temperature. The viability dye 7-Aminoactinomycin D (7-AAD; Cat # 00-6993-50, eBioscience) was used to exclude dead cells; incubation with 7-AAD allows for penetration of compromised membranes and binding to DNA.[74] Live cells were analyzed using Summit 5.4 software on MoFlo XDP cell sorter (Beckman Coulter) to confirm human BMIC metastasis to the brain.

[6] = test system: BT478 and BT530 tumor cells; assay: Dose-response with exogenous guanine supplementation; assay type: cell-based, human; conditions: guanine 12 μM in culture media
Excerpt: Created with BioRender.com. […] Comparisons were made via a two-tailed unpaired t test, n = 4 technical replicates, p value is indicated. N.s., not significant, ∗∗∗∗ = p < 0.0001. […] Comparisons were made via a two-tailed unpaired t test, n = 4 technical replicates. N.s., not significant. […] Data are presented as mean ± SD from 4 technical replicates. (E) Immunoblot confirmation of IMPDH (IMPDH1 + IMPDH2) knockout (KO) in patient-derived lung-BMICs. Cropped from single full blot. (F) Time-course proliferation assays of AAVS1 and IMPDH KO BT478 and BT530 cells. Comparisons were made via a two-tailed unpaired t test. Data are presented as mean ± SD from 4 technical replicates, ∗∗∗∗ = p < 0.0001. (G) Representative bar graphs depicting the sphere count per 200 cells of AAVS1 vs. IMPDH KO cells. Comparisons were made via a two-tailed unpaired t test, data are presented as mean ± SD from 4 technical replicates, ∗∗∗∗ = p < 0.0001. (H) Kaplan-Meier curves showing the overall survival probability (from primary cancer diagnosis to death) in a cohort of 30 patients with lung carcinoma who developed BM, for IMPDH2 very high vs. very low expression (1st and 3rd quartiles cutoff values: <114.86 and >210.74). The Cox regression model for survival analysis was used, p values (p) are shown. […]

[7] = read-out: clinically relevant plasma Cmax concentration; cited from earlier work
[8] = carboxylic acid functionality; no measurement described; cited from earlier work

Row | SMILES | BMIC proliferation over time [1] | sphere-forming capability following drug removal [2] | brain tumor burden ([3]; BMICs pre-treated at IC80, 2 weeks post-injection, IVIS) | survival ([3]; BMICs pre-treated at IC80, intracranial engraftment) | brain tumor burden and survival phenotype [4] | TRA-1-85-positive human cells detected in brains ([5]; humane endpoint, flow cytometry, vs vehicle) | increase in median survival time ([5]; intrathoracic injection, vs vehicle-treated cells) [days] | BMIC viability with exogenous guanine supplementation [6] | Cmax [7] [µM] | pKa [8]
1 | COc1c(C)c2c(c(O)c1C/C=C(\C)CCC(=O)O)C(=O)OC2 [MPA, Mycophenolic acid] | inhibits BMIC proliferation over time | do not regain sphere-forming capability | significantly reduced brain tumor burden | survived significantly longer | recapitulated | significantly fewer | 6 | rescued BMIC viability | 10 | ~5
2 | COc1c(C)c2c(c(O)c1C/C=C(\C)CCC(=O)OCCN1CCCC1)C(=O)OC2 [Compound 3] | – | – | – | – | – | – | – | rescued BMIC viability | – | –
